Assay results from patent US11618909B2, “Acid-tolerant Saccharomyces cerevisiae and use thereof” (JIANGNAN UNIVERSITY, priority 2020, dated 2023).

System: mutant MTPfo-4
Assay: Tolerance to other acids by OD600, mutant MTPfo-4
Format: cell-based, Saccharomyces cerevisiae
Details: pH 2.44, OD600 over 72 h
Experimental: To analyze the tolerance of the mutant MTPfo-4 to other acids, 10 acids, including 2 inorganic acids of HCl and H3PO4, and 8 organic acids of lactic acid, malic acid, fumaric acid, succinate acid, tartaric acid, furoic acid, gluconic acid, and citric acid, were added exogenously in the present invention to analyze the acid tolerance of cells. The initial pH was controlled to 2.44. The cells were sampled every 12 h for consecutive 72 h. The acid tolerance of cells was analyzed by determining the OD600. […] The cells were sampled every 12 h for consecutive 72 h. The acid resistance of the cells was analyzed again by determining the OD600.

| SMILES | effect of the acid on the mutant MTPfo-4 |
| --- | --- |
| O=C(O)/C=C/C(=O)O [fumaric acid] | inhibitory effect |
| O=C(O)c1ccco1 [furoic acid] | inhibitory effect |
| O=C(O)CCC(=O)O [succinic acid] | inhibitory effect |
| O=C(O)C(O)C(O)C(=O)O (stereo not shown) [tartaric acid] | inhibitory effect |
